Assay results published in patent US11414387B2, “Oxoacridinyl acetic acid derivatives and methods of use” (Stingthera, Inc., priority 2017, dated 2022).
pIC50: −log10 of the molar value.

Legend:
mSTING-CTD = mSTING-CTD (Mus musculus (Mouse), UniProt Q3TBT3); experiment: Mouse STING protein FP competition concentration response assay; format: binding
Experimental: A validated STING ligand, such as c-di-GMP, which is labeled with a read-out signal (e.g., a fluorescence signal such as fluorescein), is mixed with STING-CTD (e.g., mouse STING-CTD or human STING-CTD) with or without the presence of a compound of the present application. Changes in the read-out signal are measured (e.g., by fluorescence anisotropy) to determine the binding of the compound to STING-CTD.
Fluorescein labeled c-di-GMP was mixed with mSTING-CTD with or without the presence of a compound of the present application in PBS in black 384-well plates (10 μL per well). The fluorescence anisotropy was determined on a PerkinElmer EnVisions multi-mode plate reader. The plate can be read immediately after mixing the reagents or after a few hours without change of signals.
• 1) 6×his-sumo-mSTING (Supplier: HDB) • 2) 2′-Fluo-AHC-c-di GMP (BIOLOG #F009) • 3) 23-cGAMP (BIOLOG #C161) • 4) DMXAA (InvivoGen #tlrl-dmx) • 5) DMSO (Sigma. #D5879-100 mL) • 6) 10×PBS(HDB #MCP-020) • 7) Assay plate, 384-well black plate, solid black bottom (Greiner #784076) • 8) Compound dilution intermediate plate, 384 LDV plate (Labcyte #LP-0200) • 9) Liquid handler, ECHO550 (Labcyte) • 10) Liquid handler, Bravo (Aglient) • 11) Reader, Envision (PerkinElmer) • 12) Centrifuge (Eppendorf) • 13) Multichannel Pipette (Raining) • 14) 10 ml Reservoir (Corning) • 15) 15 ml centrifuge tube (Corning) • 16) Adhesive Plate seals (BioRad) Compound Preparation • a) Containers of each compound were centrifuged at 1000 rpm for 5 min. • b) Compounds were dissolved in DMSO at 30 mM. • c) Compounds were sufficiently vortexed, and centrifuged at 1000 rpm for 1 min. • d) 16 uL of the compound solution was transferred into a LDV Compound Plate. • e) 2-fold serial dilutions of the compound solution were made with DMSO, and 14 concentrations were made in the 384-well LDV Compound Plate. • f) The LDV plate was spun at 1000 rpm for 60 sec and sealed with foil (stored at −20° C. if not used immediately). • g) 335 nL of each compound from the LDV Compound Plate was transferred to Assay Plate (ECHO550). Probe Preparation • a) 200 uM probe stock (2′-Fluo-AHC-c-diGMP) was diluted by dd2O to 6 uM working concentration. • b) 10-12 uL 6 uM working solution of probe was transferred into the LDV plate. • c) 50 nL per well 6 uM working solution of probe was transferred from the LDV plate to each well of the empty Assay Plate (Greiner 784076) by ECHO550 Buffer mode. • d) Probe final concentration was 30 nM when assay system was 10 uL. • e) The Assay Plate was spun at 1000 rpm for 1 min. Compound Addition • a) After the LDV Compound Plate was prepared, 100 nL compound (ECHO550 DMSO mode) was transferred from the LDV Compound Plate into the Assay Plate (Greiner 784076) containing 50 nL probe in each well according to the Assay Plate layout. • b) DMSO final concentration was 1% when assay system was 10 uL. • c) The Assay Plate was spun at 1000 rpm for 1 min. Protein Addition • a) Aliquot of 6×his-sumo-mSTING protein was thawed on ice, briefly to generate uniform solution. • b) 66 uM stock protein was diluted in 1×PBS assay buffer to generate 8 uM final solutions. • c) For test compound and ZPE wells, 10 μL per well of 8 uM protein solutions was added into the Assay Plate containing both the probe and test compounds or DMSO using multichannel pipette. • d) For HPE wells, 10 µL/well of 1×PBS assay buffer instead of protein was added into the Assay Plate containing both the probe and DMSO using multichannel pipette. • e) The Assay Plate was spun at 1000 rpm for 1 min. • f) The Assay Plate was incubated at r.t. for 10-20 min.
The EnVision plate reader was used to record the FA value of each well immediately after mixing the reagents or after a few hours without change of signals.
The raw data and calculated data (Fluorescence anisotropy (FA)) was exported from the EnVision reader. […]

mSTING = mSTING (Mus musculus, UniProt Q3TBT3); experiment: Radiometric filtration binding competition assay, mSTING
Experimental: (§1) A radiometric filtration binding competition assay was performed to quantify the binding affinity of compounds of the present application for the human or mouse STING protein, or associated HAQ human isoform. […] The resulting dose response was fit by non-linear regression to determine an IC50 value, from which a Ki value for each compound was extrapolated.
(§2) The resulting complexes were then filtered, dried, and scintillation fluid was added and the remaining radio signal was measured to determine the degree of compound ligand inhibition. This assay format was optimized for both the WT and HAQ isoforms of the human protein and the mouse orthologue protein.
(§3) Probe Concentration: Minimum concentration that achieved max assay window • g. Assay Format: Scintillation Proximity Bead or Filtration Binding Plate • h. […] Assay incubation times for successive incubation steps
(§4) WT-hSWAT: WT_FBA_HIS-SUMO-hSWAT IC50 (μM) (“WT”=Wild-type); HAQ-hSWAT: HAQ_FBA_HIS-SUMO-hSWAT IC50 (μM) (“HAQ”=human HAQ allele of STING protein); and WT-mSWAT: MOUSE_FBA_HIS-SUMO-mnSWAT IC50 (μM) which is the mouse isoform of STING protein.

hSTING-R232 = hSTING-R232 (Homo sapiens (Human), UniProt Q86WV6, H232R); experiment: STING differential scanning fluorimetry (DSF) assay, WT human STING; settings: WT (R232) human STING aa140-379, net shift in melting temperature
hSTING-WT = hSTING-WT (Homo sapiens (Human), UniProt Q86WV6, H232R); experiment: Radiometric filtration binding competition assay, hSTING-WT
mSTING-R232 = mSTING-R232 (Mus musculus, UniProt Q3TBT3); experiment: STING differential scanning fluorimetry (DSF) assay, mouse STING; settings: net shift in melting temperature
Experimental: (§5) A STING DSF assay was performed to determine protein thermostability shift in response to small molecule ligand binding. A STING thermostability shift assay based on differential scanning fluorimetry was used to measure (1) the net shift in melting temperature (ΔTm)between the apo and ligand-bound states of the STING protein and (2) the concentration of the thermal denaturation transition (EC50) as a surrogate measure of binding affinity (K). […] Protein in assay buffer was transferred to a 384 well plate and incubated with the hydrophobic fluorescent dye SYBR Orange. A temperature ramp was applied to the plate and the resulting dye fluorescence was plotted as a function of temperature. The first derivative of this function (dF/dT) was then used to extrapolate the melting temperature of the protein at various concentrations of compound and determine the thermal denaturation profile of a protein/compound complex.
(§6) • 1. Protein construct (affinity tag removal vs SUMO-fusion construct) • 2. Protein concentration • 3. Dye concentration • 4. Buffer • 5. Thermal ramp velocity • 6. DMSO tolerance • 7. Compound titration parameters • 8. […] 5 μM purified Target STING Protein • 3. 8 μM Sypro Orange Dye • 4. Buffer: 100 mM NaCl, 30 mM HEPES, pH 7.5 • 5. Thermal Ramp: 0.5° C./min • 6. <1% DMSO • 7. 11 point, 2 fold dilution, duplicate, 300 μM high concentrations • 8.

hSTING-CTD = hSTING-CTD (Homo sapiens (Human), UniProt Q86WV6); experiment: Human STING protein FP competition concentration response assay; format: binding
Method in brief: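 Compound, serially diluted 2-fold over 14 concentrations, competes with 2′-Fluo-AHC-c-di-GMP (30 nM) for binding to hSTING-CTD (10 uM) in PBS with 3.35% DMSO at room temperature for 10-20 min. Anisotropy change gives IC50 by sigmoidal four-parameter regression.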

hSTING-HAQ [1] = target: T1, hSTING-HAQ (Homo sapiens (Human), UniProt Q86WV6, G230A/H232R/R293Q); experiment: Radiometric filtration binding competition assay, hSTING-HAQ
Experimental: as §1, §2, §3, §4

STING protein = STING protein (Homo sapiens (Human), UniProt Q86WV6, H232R); experiment: Cell based reporter assay of IRF activation (IRF-luciferase), THP1-dual-KI R232; settings: read-out: THP1-dual-KI R232_IRF(Luciferase)_Activity Maximum measured (%)
hSTING-HAQ [2] = target: T1, hSTING-HAQ; experiment: STING differential scanning fluorimetry (DSF) assay, HAQ human STING; settings: HAQ human STING aa140-379, net shift in melting temperature
Experimental: as §5, §6

STING protein, sequence (Q86WV6 whole entry H232R, the tested form may be a part): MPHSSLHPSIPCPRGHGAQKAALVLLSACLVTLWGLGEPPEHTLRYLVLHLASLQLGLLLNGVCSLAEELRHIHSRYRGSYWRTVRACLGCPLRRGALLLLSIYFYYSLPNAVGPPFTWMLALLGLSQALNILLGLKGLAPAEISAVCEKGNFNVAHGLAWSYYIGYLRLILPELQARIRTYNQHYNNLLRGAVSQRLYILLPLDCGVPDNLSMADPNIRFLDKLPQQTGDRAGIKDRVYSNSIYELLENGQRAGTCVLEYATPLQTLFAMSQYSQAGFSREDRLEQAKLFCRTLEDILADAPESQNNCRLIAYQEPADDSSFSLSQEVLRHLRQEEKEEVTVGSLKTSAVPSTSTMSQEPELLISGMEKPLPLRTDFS
T1 sequence (Q86WV6 140-379 G230A/H232R/R293Q): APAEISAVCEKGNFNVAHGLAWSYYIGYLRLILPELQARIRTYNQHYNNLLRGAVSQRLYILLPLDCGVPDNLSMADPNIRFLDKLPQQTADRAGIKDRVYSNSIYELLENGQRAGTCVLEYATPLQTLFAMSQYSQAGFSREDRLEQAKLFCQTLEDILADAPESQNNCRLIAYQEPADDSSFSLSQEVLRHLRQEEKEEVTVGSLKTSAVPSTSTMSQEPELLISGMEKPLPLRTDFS
mSTING-CTD, sequence (Q3TBT3 134-378): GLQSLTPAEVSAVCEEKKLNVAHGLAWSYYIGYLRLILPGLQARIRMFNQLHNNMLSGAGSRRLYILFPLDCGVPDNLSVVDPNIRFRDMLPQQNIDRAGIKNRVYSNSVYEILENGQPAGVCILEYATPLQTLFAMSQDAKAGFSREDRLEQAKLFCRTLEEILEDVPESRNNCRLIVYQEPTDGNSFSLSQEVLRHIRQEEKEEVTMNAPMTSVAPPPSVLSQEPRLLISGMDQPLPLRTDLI
hSTING-R232, sequence (Q86WV6 140-379 H232R): as the sequence (Q86WV6 140-379 G230A/H232R/R293Q) above, with A91G, Q154R counted along it
hSTING-WT, sequence (Q86WV6 140-379 H232R): as the sequence (Q86WV6 140-379 G230A/H232R/R293Q) above, with A91G, Q154R counted along it
hSTING-CTD, sequence (Q86WV6 135-379): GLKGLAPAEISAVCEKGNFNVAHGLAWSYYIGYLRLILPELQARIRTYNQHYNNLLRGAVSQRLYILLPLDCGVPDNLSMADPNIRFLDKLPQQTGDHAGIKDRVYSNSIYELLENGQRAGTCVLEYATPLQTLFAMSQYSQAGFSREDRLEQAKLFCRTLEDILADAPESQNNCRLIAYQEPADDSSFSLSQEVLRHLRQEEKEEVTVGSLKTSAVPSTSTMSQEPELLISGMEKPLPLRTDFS

pIC50 (mSTING-CTD)	pIC50 (mSTING)	WT_DSF_hSWAT Tm Shift (° C.) (hSTING-R232)	pIC50 (hSTING-WT)	MOUSE DSF_6xHIS-SUMO Tm Shift (° C.) (mSTING-R232)	pIC50 (hSTING-CTD)	pIC50 (hSTING-HAQ [1])	Emax (STING protein) [%]	HAQ_DSF_hSWAT Tm Shift (° C.) (hSTING-HAQ [2])	SMILES
4.30 to 5.00	< 3.52	B (“B” = 0-2° C.)	< 3.52	C (“C” = 5-15° C.)	3.30 to 4.00				O=C(O)Cn1c2ccccc2c(=O)c2ccc(Cl)c(Cl)c21 [Compound 13]
	4.00 to 4.70	C (“C” = 2-7° C,)	4.00 to 4.70			3.52 to 4.00	< 5		O=C(O)Cn1c2cc(-c3ccccc3)ccc2c(=O)c2ccc(Cl)c(Br)c21 [Compound 177]
	3.52 to 4.00	A (“A” < 0° C.)	4.00 to 4.70	B (“B” = 0-5° C.)		4.00 to 4.70	< 5		CC(C)c1ccc2c(=O)c3ccc(Cl)c(C(F)(F)F)c3n(CC(=O)O)c2c1 [Compound 192]
		B (“B” = 0-2° C.)	4.00 to 4.70	D (“D” > 15° C.)				B (“B” = 0-2° C.)	Cc1ccc(-c2ccc3c(=O)c4ccc(Cl)c(Cl)c4n(CC(=O)O)c3c2)cc1Cl [Compound 164]
	> 4.70	D (“D” > 7° C.)	> 4.70	D (“D” > 15° C.)		4.00 to 4.70	> 50		O=C(O)Cn1c2cc(Nc3ccccc3)ccc2c(=O)c2ccc(Cl)c(Cl)c21 [Compound 181]
		C (“C” = 2-7° C,)	< 3.52			< 3.52	< 5		C#Cc1c(Cl)ccc2c(=O)c3ccccc3n(CC(=O)O)c12 [Compound 197]
	> 4.70	C (“C” = 2-7° C,)	4.00 to 4.70	D (“D” > 15° C.)		4.00 to 4.70	> 50		O=C(O)Cn1c2cc(Nc3ncccn3)ccc2c(=O)c2ccc(Cl)c(Cl)c21 [Compound 216]
	> 4.70	D (“D” > 7° C.)	> 4.70			4.00 to 4.70			COc1c(Cl)ccc2c(=O)c3ccc(C4=CCCCC4)cc3n(CC(=O)O)c12 [Compound 219]
4.30 to 5.00					> 4.00				O=C(O)Cn1c2cc(N3CCOCC3)ccc2c(=O)c2ccc(Cl)c(Cl)c21 [Compound 60]
	3.52 to 4.00	C (“C” = 2-7° C,)	3.52 to 4.00			< 3.52			CSc1c(Cl)ccc2c(=O)c3ccccc3n(CC(=O)O)c12 [Compound 212]
		B (“B” = 0-2° C.)	4.00 to 4.70	D (“D” > 15° C.)			< 5	B (“B” = 0-2° C.)	O=C(O)Cn1c2cc(-c3cccc(C(F)(F)F)c3)ccc2c(=O)c2ccc(Cl)c(Cl)c21 [Compound 161]
> 5.00					3.00 to 3.30				Cc1ccc2c(=O)c3cccc(Cl)c3n(CC(=O)O)c2c1 [Compound 12]
4.30 to 5.00					< 3.00				Cc1ccc2c(=O)c3ccc(C)cc3n(CC(=O)O)c2c1 [Compound 15]
	> 4.70	C (“C” = 2-7° C,)	4.00 to 4.70	D (“D” > 15° C.)			5 to 25	C (“C” = 2-7° C,)	O=C(O)Cn1c2cc(C3CCCC3)ccc2c(=O)c2ccc(Cl)c(Cl)c21 [Compound 113]
		B (“B” = 0-2° C.)	4.00 to 4.70	D (“D” > 15° C.)			5 to 25	B (“B” = 0-2° C.)	CC1(C)CCC(c2ccc3c(=O)c4ccc(Cl)c(Cl)c4n(CC(=O)O)c3c2)CC1 [Compound 160]
		A (“A” < 0° C.)	4.00 to 4.70				< 5	A (“A” < 0° C.)	Cc1ccc(S(=O)(=O)NC(=O)Cn2c3cc(C(C)C)ccc3c(=O)c3ccc(Cl)c(Cl)c32)cc1 [Compound 351]
> 5.00					3.00 to 3.30				O=C(O)Cn1c2ccccc2c(=O)c2ccc3c(c21)CCCC3 [Compound 9]
4.30 to 5.00					< 3.00				COc1ccc2c(=O)c3ccc(C)cc3n(CC(=O)O)c2c1 [Compound 34]
4.30 to 5.00					3.30 to 4.00				O=C(O)Cn1c2ccccc2c(=O)c2cc(CCc3ccccc3)ccc21 [Compound 23]
4.30 to 5.00					3.00 to 3.30				Cc1c(C2=CCCCC2)ccc2c(=O)c3ccccc3n(CC(=O)O)c12 [Compound 28]
4.30 to 5.00					3.00 to 3.30				O=C(O)Cn1c2ccccc2c(=O)c2cc(C#Cc3ccccc3)ccc21 [Compound 22]
4.30 to 5.00					> 4.00				CC(C)c1ccc2c(=O)c3ccc(Cl)c(Cl)c3n(CC(=O)O)c2c1 [Compound 81]
		C (“C” = 2-7° C,)	3.52 to 4.00				< 5	C (“C” = 2-7° C,)	CC(C)c1ccc2c(=O)c3ccc(Cl)c(Br)c3n(CC(=O)NS(C)(=O)=O)c2c1 [Compound 350]
4.30 to 5.00					3.30 to 4.00				CN(C)c1ccc2c(=O)c3ccc(Cl)c(Cl)c3n(CC(=O)O)c2c1 [Compound 71]
4.30 to 5.00					< 3.00				Cc1ccc2c(c1)c(=O)c1ccccc1n2CC(=O)O [Compound 10]
4.30 to 5.00					3.30 to 4.00				Cc1ccc2c(=O)c3ccc(Cl)c(Cl)c3n(CC(=O)O)c2c1 [Compound 29]
4.00 to 4.30					3.30 to 4.00				Cc1cc2c(=O)c3ccc(Cl)c(Cl)c3n(CC(=O)O)c2cc1C [Compound 94]
4.30 to 5.00					< 3.00				O=C(O)Cn1c2ccccc2c(=O)c2cccc(Cl)c21 [Compound 8]
